Results as given in patent US20170000902A1, “EGFR-TARGETED NANOPARTICLES” (CALIFORNIA INSTITUTE OF TECHNOLOGY, priority 2014, published 2017).

Tested on: EGFR mRNA
Test: siEGFR knock down of EGFR mRNA expression
Format: cell-based
Settings: 50 picomolar concentration of siRNA; expression knocked down to this level
From the text: Nanoparticles were designed to specifically target EGFR-positive non-small cell lung cancer (NSCLC) cells and deliver siRNA to hinder EGFR expression. The nanoparticles have 4 primary components (see FIG. 1): • 1. A biocompatible cationic mucic acid polymer (cMAP) that encapsulates siRNA with a charge ratio (+/−) of 1; • 2. 5-nitrophenyl boronic acid-mPEG (5-nPBA-mPEG), which binds to cMAP through boronic acids' interaction with diols present on cMAP, to form a coating of methoxy-polyethylene glycol (mPEG) in order to ensure particle stability in serum; • 3. Cetuximab, the targeting agent for the particle, also attached to cMAP through a 5-nitrophenyl boronic acid-PEG entity; and • 4. siRNA against EGFR (siEGFR), able to knock down EGFR mRNA expression to 20% at a 50 picomolar concentration (see SEQ ID NO: 1). The resulting nanoparticles are cetuximab-conjugated cMAP-siEGFR nanoparticles.

Substance: siEGFR: siRNA against EGFR, SEQ ID NO: 1 bound to SEQ ID NO: 2 (chain 1 UAAUUUCCAAAUUCCCAAGGAC; chain 2 CCUUGGGAAUUUGGAAAUUAUA; listed as RNA, chemistry not given here)
- EGFR mRNA expression after knock down: 20%
